Common to all, as to assay type: in vivo
For test [1], the system named is Echinochloa crus-galli. Description: Test Example 1: herbicidal effect test by soil treatment in paddy field. The following applies: 120 g/10a, paddy soil treatment just after sowing, 14 days after treatment. The gist of the method: (§1)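 Seeds (30 per species) are sown 0–1 cm deep in puddled, fertilized paddy soil, then flooded to about 3 cm. Water-diluted emulsifiable concentrate is dripped in at once, giving 120 g active ingredient per 10 are. Plants grow 14 days in a glass greenhouse before dry weights are compared with untreated.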

Test [2] has as its system Lindernia pyxidaria. The test is described as above. The following applies: 120 g/10a, paddy soil treatment just after sowing, 14 days after treatment. The gist of the method: as §1
The test system of test [3] is Monochoria vaginalis. The test is described as above. The following applies: 120 g/10a, paddy soil treatment just after sowing, 14 days after treatment. The gist of the method: as §1
In test [4] the test system is Scirpus juncoides. The description is as above. The following applies: 120 g/10a, paddy soil treatment just after sowing, 14 days after treatment. The gist of the method:
as §1

The subject of test [5] is Echinochloa crus-galli. Briefly: Test Example 2: herbicidal effect test by treatment during growing period in paddy field. The following applies: treatment 7 days after sowing, 120 g/10a, evaluated 14 days after treatment. The protocol: (§2) This test was performed with two replications per one formulation concentration plot, and 14 days after the formulation treatments, the weed suppression rate (%) was determined according to the following equation (Math. 1). Weed suppression rate (%)=(1−an average dry weight (g) of plants in treated plots/an average dry weight (g) of plants in untreated plots)×100 [Math. 1]
(§3) A Wagner pot having an area of 1/10000 are was filled with paddy field soil and after adding water, a chemical fertilizer (N:P:K=17:17:17) was mixed, followed by puddling. Thereafter, 30 grains of each of Echinochloa crus-galli, broad-leaved weed (Lindernia pyxidaria and Monochoria vaginalis) and Scirpus juncoides seeds were sown to a depth of 0 to 1 cm. Immediately after the sowing, the pot was flooded, and the depth of water was kept at about 3 cm. The pot was subsequently managed in a glass greenhouse. Seven days after sowing, an emulsifiable concentrate prepared according to Formulation Example 5 by using the compound shown in Table 6 below was diluted with water, and a predetermined amount of the water-diluted formulation was added dropwise. The application rate of the active ingredient, by conversion, corresponded to 120 g per 10 are. The test was performed with two replications per one formulation concentration plot, and 14 days after the formulation treatments, the weed suppression rate (%) was determined according to the equation (Math. 1).

The test system of test [6] is Lindernia pyxidaria. The description is as above. The following applies: treatment 7 days after sowing, 120 g/10a, evaluated 14 days after treatment. The protocol:
as §2, §3

For test [7], the system named is Monochoria vaginalis. The description is as above. Conditions: treatment 7 days after sowing, 120 g/10a, evaluated 14 days after treatment. The protocol:
as §2, §3

The subject of test [8] is Scirpus juncoides. The test is described as above. Conditions: treatment 7 days after sowing, 120 g/10a, evaluated 14 days after treatment. The protocol: as §2, §3
A further test relates to Amaranthus viridis. Description: Test Example 4: herbicidal effect test by foliage treatment in upland field. Conditions: upland field foliage treatment 7 days after sowing; 120 g/10a; evaluated 14 days after treatment. As for the experimental part: as §2
(§4) A pot having a size of 36 cm^2 was filled with field soil (alluvial soil) and after uniformly mixing the soil of the surface layer of 1 cm with 20 grains of each weed seed of crabgrass, Echinochloa crus-galli, Chenopodium album and Amaranthus viridis, the surface layer was pressed lightly. Seven days after the sowing, an emulsifiable concentrate prepared according to Formulation Example 5 by using the compound shown in Table 8 below was diluted with water, and the water-diluted formulation was sprayed on the soil surface at a ratio of 100 liter per 10 are. The application rate of the active ingredient, by conversion, corresponded to 120 g per 10 are. Fourteen days after the formulation treatment, the herbicidal effect was evaluated by the same criteria as in Test Example 1.

The subject of another test is Chenopodium album. The description is as above. The following applies: upland field foliage treatment 7 days after sowing; 120 g/10a; evaluated 14 days after treatment. As for the experimental part: as §2, §4
The test system of test [9] is Echinochloa crus-galli. Described as above. Conditions: upland field foliage treatment 7 days after sowing; 120 g/10a; evaluated 14 days after treatment. The protocol: as §2, §4
The subject of the next test is crabgrass. Described as above. The following applies: upland field foliage treatment 7 days after sowing; 120 g/10a; evaluated 14 days after treatment. As for the experimental part: as §2, §4

Regarding `Cc1cc(N(C(=O)n2ncn(S(=O)(=O)C(C)C)c2=O)C(C)C)no1` [Compound 1-99], the entries for the “weed suppression rate, Echinochloa crus-galli” value in the test with Echinochloa crus-galli [1] and in the test with Echinochloa crus-galli [5] were 60% and 90%, respectively. The “weed suppression rate, Lindemia pyxidaria” value with Lindernia pyxidaria [2] and with Lindernia pyxidaria [6] was 80% throughout. The “weed suppression rate, Monochoria vaginalis” value in the test with Monochoria vaginalis [3] is reported as 90%; in the test on Monochoria vaginalis [7] it was 80%. Further, the “weed suppression rate, Scirpus juncoides” value in the test with Scirpus juncoides [4] is listed as 50%; with Scirpus juncoides [8], 90%. Moreover, the “herbicidal effect (weed suppression rate), Amaranthus viridis” value (“herbicidal effect … Amaranthus viridis” below) in the test on Amaranthus viridis is on record as 90%. The “herbicidal effect (weed suppression rate), Chenopodium album” value (“herbicidal effect … Chenopodium album” below) with Chenopodium album was 80%. Besides, the “herbicidal effect (weed suppression rate), Echinochloa crus-galli” value (shortened to “herbicidal effect … Echinochloa crus-galli”) with Echinochloa crus-galli [9] was 80%. Further, in the test on crabgrass, the “herbicidal effect (weed suppression rate), Crabgrass” value (from here on “herbicidal effect … Crabgrass”) is given as 90%.

As for `CC(C)N(C(=O)n1ncn(S(=O)(=O)C2CC2)c1=O)c1cccc(F)c1` [Compound 1-170], the “weed suppression rate, Echinochloa crus-galli” value came to 90% in the test with Echinochloa crus-galli [1] and 100% in the test with Echinochloa crus-galli [5]. The “weed suppression rate, Lindemia pyxidaria” value in the test with Lindernia pyxidaria [2] worked out at 100%; in the test on Lindernia pyxidaria [6], 90%. The “weed suppression rate, Monochoria vaginalis” value in the test with Monochoria vaginalis [3] and in the test on Monochoria vaginalis [7] was 90% each time. Besides, the “weed suppression rate, Scirpus juncoides” value in the test on Scirpus juncoides [4] and in the test with Scirpus juncoides [8] was 90% in each case. The “herbicidal effect … Amaranthus viridis” value in the test on Amaranthus viridis worked out at 90%. Besides, in the test on Chenopodium album, the “herbicidal effect … Chenopodium album” value was 80%. In addition, the “herbicidal effect … Echinochloa crus-galli” value in the test on Echinochloa crus-galli [9] was found to be 80%. Also, the “herbicidal effect … Crabgrass” value in the test with crabgrass came out at 90%.

Consider `CC(C)N(C(=O)n1ncn(S(=O)(=O)C2CC2)c1=O)c1c(F)cc(F)cc1F` [Compound 1-204], for which the “weed suppression rate, Echinochloa crus-galli” value in the test on Echinochloa crus-galli [1] and in the test on Echinochloa crus-galli [5] was 100% each time. The “weed suppression rate, Lindemia pyxidaria” value came out at 100% in the test on Lindernia pyxidaria [2] and 80% with Lindernia pyxidaria [6]. Also, the “weed suppression rate, Monochoria vaginalis” value with Monochoria vaginalis [3] is recorded as 80%; with Monochoria vaginalis [7], 100%. For the same molecule, the “weed suppression rate, Scirpus juncoides” value in the test with Scirpus juncoides [4] and in the test with Scirpus juncoides [8] was 100% each time. Also, the “herbicidal effect … Amaranthus viridis” value in the test with Amaranthus viridis was found to be 80%. For the same molecule, in the test on Chenopodium album, the “herbicidal effect … Chenopodium album” value was determined as 60%. In addition, the “herbicidal effect … Echinochloa crus-galli” value in the test with Echinochloa crus-galli [9] amounted to 100%. In the test with crabgrass, the “herbicidal effect … Crabgrass” value is 100%.

With `CC(C)N(C(=O)n1ncn(S(=O)(=O)C2CC2)c1=O)c1c(F)c(F)cc(F)c1F` [Compound 1-206], the “weed suppression rate, Echinochloa crus-galli” value in the test on Echinochloa crus-galli [1] and with Echinochloa crus-galli [5] was 100% each time. Also, the “weed suppression rate, Lindemia pyxidaria” value in the test with Lindernia pyxidaria [2] is 100%; in the test on Lindernia pyxidaria [6], 80%. Besides, the “weed suppression rate, Monochoria vaginalis” value in the test with Monochoria vaginalis [3] and in the test on Monochoria vaginalis [7] was 90% in each case. Moreover, the “weed suppression rate, Scirpus juncoides” value in the test with Scirpus juncoides [4] and in the test with Scirpus juncoides [8] was 100% in each case. For the same molecule, the “herbicidal effect … Amaranthus viridis” value with Amaranthus viridis came out at 80%. Besides, the “herbicidal effect … Chenopodium album” value with Chenopodium album stood at 60%. Moreover, in the test on Echinochloa crus-galli [9], the “herbicidal effect … Echinochloa crus-galli” value was found to be 100%. The “herbicidal effect … Crabgrass” value in the test with crabgrass stood at 100%.

For `CC(C)N(C(=O)n1ncn(S(=O)(=O)C2CC2)c1=O)c1ccc(C(F)(F)F)cc1F` [Compound 1-226], the “weed suppression rate, Echinochloa crus-galli” value with Echinochloa crus-galli [1] and in the test with Echinochloa crus-galli [5] was 100% each time. Besides, the “weed suppression rate, Lindemia pyxidaria” value was determined as 100% with Lindernia pyxidaria [2] and 80% in the test on Lindernia pyxidaria [6]. Besides, the “weed suppression rate, Monochoria vaginalis” value in the test with Monochoria vaginalis [3] and with Monochoria vaginalis [7] was 100% each time. Besides, the “weed suppression rate, Scirpus juncoides” value is 100% in the test with Scirpus juncoides [4] and 90% in the test on Scirpus juncoides [8]. In the test with Amaranthus viridis, the “herbicidal effect … Amaranthus viridis” value is on record as 90%. Further, the “herbicidal effect … Chenopodium album” value in the test with Chenopodium album was 80%. Further, the “herbicidal effect … Echinochloa crus-galli” value with Echinochloa crus-galli [9] worked out at 100%. Further, the “herbicidal effect … Crabgrass” value in the test on crabgrass stood at 100%.

(Values after patent publication US11076595B2, “1-(n,n-disubstituted carbamoyl) 4-(substituted sulfonyl)triazolin-5-one derivative, 4-(n,n-disubstituted carbamoyl) 1-(substituted sulfonyl)triazolin-5-one derivative, and herbicide containing said derivative as active ingredient” (HOKKO CHEMICAL INDUSTRY CO., LTD., priority 2017, dated 2021).)
